# Experiments:
# Assay type in all cases: in vivo
# Halyomorpha mista = assay: Experimental Example 24: direct oil spray in CSMA chamber, Halyomorpha mista; conditions: 0.4 ml of 5% (w/v) oil sprayed directly; after 72 hours
# Experimental: 1.5 g of the present compound (31) is dissolved in 30 mL of a mixed solvent of 90 parts by weight of Isopar M (isoparaffin; the registered trade name of Exxon Chemical) and 10 parts by weight of dichloromethane to prepare a 5% (w/v) oil. A plastic cup (860 mL) containing 10 imagoes of Halyomorpha mista is covered with a nylon net (mesh width: 2 mm) and then placed on the bottom of a CSMA chamber (width: 46 cm, depth: 46 cm, height: 70 cm). 0.4 ml of the oil is directly sprayed on the test Halyomorpha mista from the upper side of the CSMA chamber. After 10 seconds from spraying, the cup containing Halyomorpha mista is removed, and feed and water are placed in the cup.
# Blattella germanica [1] = assay: Experimental Example 22: treated filter paper suspended in chamber, Blattella germanica; conditions: 10 mL of 10% (w/v) acetone solution on filter paper; 70 cm cube chamber; after 72 hours
# Experimental: A 10% (w/v) solution of the present compound (31) in acetone is prepared. 10 mL of the solution is uniformly added dropwise to a filter paper with 10 cm×25 cm and then air-dried. The filter paper is suspended from the center of the ceiling of a chamber with 70 cm (width)×70 cm (depth)×70 cm (height). After 20 imagoes (10 males and 10 females) of Blattella germanica are released, the door of the chamber is closed. Feed and water are placed in the glass chamber.
# Musca domestica = assay: Experimental Example 11: treated filter paper in Peet-Grady chamber, Musca domestica; conditions: 5 ml of 1% (w/v) acetone solution on filter paper; 1.8 m Peet-Grady chamber; 1 hour exposure, 24 hours later
# Experimental: A 1% (w/v) solution of the present compound (31) in acetone was prepared. Onto a filter paper with 10 cm×25 cm, 5 ml of the solution was added dropwise uniformly and then air-dried. This filter paper was suspended from the center of the ceiling center of a Peet-Grady chamber with 1.8 m (width)×1.8 m (depth)×1.8 m (height) and therein about 50 imagoes of Musca domestica were released. After 1 hour, all test pests were collected, put into a plastic cup together with absorbent cotton impregnated with 5% sugar water, and then left at 25° C. After 24 hours, the number of surviving Musca domestica was examined and the death rate was calculated.
# [2] = system: Haemaphysalis longicornis; assay: Experimental Example 7: treated polypropylene film pouch, Haemaphysalis longicornis; conditions: 0.22 ml of 0.25% (w/v) methanol solution on film; 10 young mites; after 48 hours
# Experimental: A 0.25% (w/v) solution of the present compound (31) in methanol was prepared. Onto one side of a polypropylene film having 5.7 cm (height)×16.5 cm (width), 0.22 ml of the solution was added dropwise uniformly (except for 5 mm width from the edges of the film) and then air-dried. Thereafter, the film was folded in half widthwise in a way that the side containing the present compound became the inner face of the folded film. Then, the two longer sides (5 mm width each) of the folded film were heat-sealed to obtain a pouch. 10 young mites of Haemaphysalis longicornis were put into the polypropylene film pouch. The opening part of the polypropylene film pouch was closed with a clip. After 48 hours, the number of surviving Haemaphysalis longicornis was examined and the death rate of the pest was calculated.
# Blattella germanica [3] = assay: Experimental Example 21: poison bait, Blattella germanica; conditions: poison bait: 3 ml of 0.5% by weight acetone solution per 3 g animal feed; 1 g bait; after 7 days
# Experimental: 3 ml of a 0.5% by weight solution of the present compound (31) in acetone is added dropwise to 3 g of animal powdery feed, mixed thoroughly, and then air-dried to obtain a poison bait. 1 g of this poison bait is placed on an aluminum dish and the dish is placed in a plastic cup (860 mL) containing 20 imagoes (10 males and 10 females) of Blattella germanica. The pest is given water and kept at 25° C. After 7 days, the number of surviving Blattella germanica is examined and the activity of the poison bait is obtained.
# Formica fusca japonica = assay: Experimental Example 19: direct oil spray in CSMA chamber, Formica fusca japonica; conditions: 0.4 ml of 0.0625% (w/v) oil sprayed directly; after 72 hours
# Experimental: 18.8 mg of the present compound (31) was dissolved in 30 mL of a mixed solvent of 90 parts by weight of Isopar M (isoparaffin, the registered trade name of Exxon Chemical) and 10 parts by weight of dichloromethane to prepare a 0.0625% (w/v) oil. A plastic cup (200 mL) containing 10 imagoes of Formica fusca japonica was placed on the bottom of a CSMA chamber (width: 46 cm, depth: 46 cm, height: 70 cm). 0.4 ml of the oil was directly sprayed on the test Formica fusca japonica from the upper side of the CSMA chamber. After 10 seconds from spraying, the container containing Formica fusca japonica was removed. Formica fusca japonica was transferred to another plastic container (200 mL) and left together with feed and water at 25° C. After 72 hours from pesticide treatment, Formica fusca japonica was observed and the death rate of the pest was calculated.
# Culex pipiens pallens = assay: Experimental Example 25: electric mosquito mat, Culex pipiens pallens; conditions: electric mosquito mat (Formulation Example 18); 20 minutes exposure, after 24 hours
# Experimental: An electric mosquito mat of the present compound (31) prepared according to Formulation Example 18 is set on a heater for an electric mosquito mat and then placed on the centre of the floor of a chamber having 70 cm (width)×70 cm (depth)×70 cm (height). After the electric mosquito mat is initiated to be heated with the heater, about 20 female imagoes of Culex pipiens pallens are released in the chamber. After 20 minutes, all test pests are collected, placed in a plastic cup together with absorbent cotton impregnated with 5% sugar water, and left at 25° C.
# Blattella germanica [4] = assay: Experimental Example 14: topical application, Blattella germanica; conditions: 1 μl of 1% (w/v) acetone solution onto sternum of thorax of female imagoes; after 7 days
# Experimental: 1% (w/v) solutions of the present compounds (4), (20), (22), (23), (24), (29), (30), (31), (35), (36), (37), (38), (46), (53), (54), (56), (57), (59), (61), (66), (67), (68), (69), (70), (71), (79), (81), (83), (84), (89), and (90) in acetone were prepared. Onto the sternum of the thorax of female imagoes of Blattella germanica, 1 μl of the acetone solution was added dropwise. The imagoes were transferred to a plastic cup having a diameter of about 9 cm and a height of about 4.5 cm and left together with feed and water at 25° C. After 7 days, the number of surviving Blattella germanica was examined and the death rate of the pest was calculated. 10 imagoes of Blattella germanica were put in a cup and three replicate experiments were performed.
smiles,measurement,setting,value
N#CC(C#N)(CCC(F)(F)F)CC(F)(F)C(F)(F)C(F)(F)C(F)F [(31)],pesticidal effect,Halyomorpha mista,pesticidal effect on Halyomorpha mista is confirmed
same,pesticidal effect,Blattella germanica [1],pesticidal effect on Blattella germanica is confirmed
same,death rate of the pest,Musca domestica,92%
same,death rate of the pest,[2],100%
same,activity of the poison bait,Blattella germanica [3],sufficient pesticidal effect
same,death rate of the pest,Formica fusca japonica,100%
same,pesticidal effect,Culex pipiens pallens,pesticidal effect on Culex pipiens pallens is confirmed
same,death rate of the pest,Blattella germanica [4],100%

# From patent publication US20070112068A1, “Nitrile compound and its use in pest control” (priority 2003, published 2007)
